The structures appear in SMILES notation. A value given as a limit tells only on which side of the number the result lay.

In one assay the test system is D. immitis microfilariae. The assay is described as follows: Dirofilaria immitis, microfilariae (DiMF) in vitro motility assay. The format is cell-based. Particulars: Dirofilaria immitis, 72 h, read-out: DiMF minimally effective dose (MEC).
A further assay has as its system Haemonchus contortus L3. The assay is described as follows: microbe, parasite or virus in culture. The assay is classed as cell-based. Conditions: Haemonchus contortus, 96 h, read-out: HcL3 Minimal Effective Concentration (MEC).

With `O=C(NCc1ccnc(Cl)c1)n1c2c(c3cc(Cl)c(C(F)(F)F)cc31)CN(C/C=C/c1ccc(Cl)cc1)CC2` [Example 328, (E)-8-chloro-2-(3-(4-chlorophenyl)allyl)-N-((2-chloropyridin-4-yl)methyl)-7-(trifluoromethyl)-1,2,3,4-tetrahydro-5H-pyrido[4,3-b]indole-5-carboxamide], the minimal effective concentration with D. immitis microfilariae was determined as 33 µM; in the assay with Haemonchus contortus L3 it was 0.3 µM.

In the case of `O=C(NCc1ccnc(Cl)c1)n1c2c(c3cc(OC(F)(F)F)ccc31)CN(C/C=C/c1ccc(OC(F)(F)F)cc1)CC2` [Example 395, (E)-N-((2-chloropyridin-4-yl)methyl)-8-(trifluoromethoxy)-2-(3-(4-(trifluoro-methoxy)phenyl)allyl)-1,2,3,4-tetrahydro-5H-pyrido[4,3-b]indole-5-carboxamide], the minimal effective concentration in the assay on D. immitis microfilariae was determined as 22.2 µM; in the assay on Haemonchus contortus L3, 3.3 µM.

As for `N#Cc1ccc2c3c(n(C(=O)NCc4ccnc(Cl)c4)c2c1)CCN(C/C=C/c1c(F)c(F)c(Cl)c(F)c1F)C3` [Example 17, (E)-2-(3-(4-chloro-2,3,5,6-tetrafluorophenyl)allyl)-N-((2-chloropyridin-4-yl)methyl)-7-cyano-1,2,3,4-tetrahydro-5H-pyrido[4,3-b]indole-5-carboxamide], the minimal effective concentration in the assay on D. immitis microfilariae is more than 100 µM; in the assay with Haemonchus contortus L3, 1 µM.

In the case of `O=C(NCc1ccnc(Cl)c1)n1c2c(c3cc(Cl)c(Cl)cc31)CN(C/C=C/c1ccc(F)cc1F)CC2` [Example 276, (E)-7,8-dichloro-N-((2-chloropyridin-4-yl)methyl)-2-(3-(2,4-difluorophenyl)allyl)-1,2,3,4-tetrahydro-5H-pyrido[4,3-b]indole-5-carboxamide], the minimal effective concentration in the assay on D. immitis microfilariae worked out at 18.2 µM; in the assay with Haemonchus contortus L3 it was 0.3 µM.

On to `Cc1cccc2c1c1c(n2C(=O)NCc2ccnc(Cl)c2)CCN(C/C=C/c2ccc(Cl)cc2)C1` [Example 147, (E)-2-(3-(4-chlorophenyl)allyl)-N-((2-chloropyridin-4-yl)methyl)-9-methyl-1,2,3,4-tetrahydro-5H-pyrido[4,3-b]indole-5-carboxamide], for which the minimal effective concentration stood at 10 µM with D. immitis microfilariae and 2.8 µM with Haemonchus contortus L3.

On to `O=C(NCc1ccc(F)cc1)n1c2c(c3cc(F)ccc31)CN(C/C=C/c1ccc(Cl)cc1)CC2` [Example 170, (E)-2-(3-(4-chlorophenyl)allyl)-8-fluoro-N-(4-fluorobenzyl)-1,2,3,4-tetrahydro-5H-pyrido[4,3-b]indole-5-carboxamide], for which the minimal effective concentration is 1 µM in the assay on D. immitis microfilariae and more than 100 µM with Haemonchus contortus L3.

Regarding `O=C(NCc1ccnc(Cl)c1)n1c2c(c3c(OC(F)(F)F)cccc31)CN(C/C=C/c1ccc(C(F)(F)F)cn1)CC2` [Example 343, (E)-N-((2-chloropyridin-4-yl)methyl)-9-(trifluoromethoxy)-2-(3-(5-(trifluoromethyl)pyridin-2-yl)allyl)-1,2,3,4-tetrahydro-5H-pyrido[4,3-b]indole-5-carboxamide], the minimal effective concentration in the assay with D. immitis microfilariae was 3.3 µM; in the assay on Haemonchus contortus L3, 33 µM.

As for `N#Cc1ccc(/C=C/CN2CCc3c(c4c(C(F)(F)F)cc(F)cc4n3C(=O)NCc3ccnc(Cl)c3)C2)cc1` [Example 320, (E)-N-((2-chloropyridin-4-yl)methyl)-2-(3-(4-cyanophenyl)allyl)-7-fluoro-9-(trifluoromethyl)-1,2,3,4-tetrahydro-5H-pyrido[4,3-b]indole-5-carboxamide], the minimal effective concentration with D. immitis microfilariae was 18.2 µM; with Haemonchus contortus L3 it was 3.3 µM.

Consider `N#Cc1ccc(/C=C/CN2CCc3c(c4ccc(Br)cc4n3C(=O)NCc3ccnc(Cl)c3)C2)cc1F` [Example 438, (E)-7-bromo-N-((2-chloropyridin-4-yl)methyl)-2-(3-(4-cyano-3-fluorophenyl)allyl)-1,2,3,4-tetrahydro-5H-pyrido[4,3-b]indole-5-carboxamide], for which the minimal effective concentration in the assay on D. immitis microfilariae was 18.2 µM; in the assay on Haemonchus contortus L3 it was more than 100 µM.

On to `O=C(NCc1ccnc(Cl)c1)n1c2c(c3cc(Br)ccc31)CN(C/C=C/c1ccc(OC(F)(F)F)cc1)CC2` [Example 187, (E)-8-bromo-N-((2-chloropyridin-4-yl)methyl)-2-(3-(4-(trifluoromethoxy)phenyl)allyl)-1,2,3,4-tetrahydro-5H-pyrido[4,3-b]indole-5-carboxamide], for which the minimal effective concentration in the assay with D. immitis microfilariae was more than 100 µM; in the assay with Haemonchus contortus L3, 1.3 µM.

As for `N#Cc1ccc2c(c1)c1c(n2C(=O)NCc2ccnc(F)c2)CCN(C/C=C/c2ccncc2)C1` [Example 124, (E)-8-cyano-N-((2-fluoropyridin-4-yl)methyl)-2-(3-(pyridin-4-yl)allyl)-1,2,3,4-tetrahydro-5H-pyrido[4,3-b]indole-5-carboxamide], the minimal effective concentration was found to be 33 µM in the assay with D. immitis microfilariae and 100 µM with Haemonchus contortus L3.

Consider `O=C(NCc1ccnc(Cl)c1)n1c2c(c3ccc(OC(F)(F)F)cc31)CN(C/C=C/c1ccc(F)cc1F)CC2` [Example 347, (E)-N-((2-chloropyridin-4-yl)methyl)-2-(3-(2,4-difluorophenyl)allyl)-7-(trifluoromethoxy)-1,2,3,4-tetrahydro-5H-pyrido[4,3-b]indole-5-carboxamide], for which the minimal effective concentration in the assay with D. immitis microfilariae and in the assay on Haemonchus contortus L3 was 2.4 µM each time.

As for `O=C(NCc1ccnc(Cl)c1)n1c2c(c3ccc(N4CCOCC4)cc31)CN(C/C=C/c1ccc(Cl)c(F)c1)CC2` [Example 509, (E)-2-(3-(4-chloro-3-fluorophenyl)allyl)-N-((2-chloropyridin-4-yl)methyl)-7-morpholino-1,2,3,4-tetrahydro-5H-pyrido[4,3-b]indole-5-carboxamide], the minimal effective concentration came to 18.2 µM in the assay on D. immitis microfilariae and 1 µM with Haemonchus contortus L3.

Consider `N#Cc1ccc2c(c1)c1c(n2C(=O)NCc2ccnc(O)c2)CCN(C/C=C/c2ccc(Cl)c(Cl)c2)C1` [Example 449, (E)-8-cyano-2-(3-(3,4-dichlorophenyl)allyl)-N-((2-hydroxypyridin-4-yl)methyl)-1,2,3,4-tetrahydro-5H-pyrido[4,3-b]indole-5-carboxamide], for which the minimal effective concentration in the assay on D. immitis microfilariae and in the assay with Haemonchus contortus L3 was more than 100 µM throughout.

Regarding `N#Cc1ccc2c3c(n(C(=O)NCc4ccnc(F)c4)c2c1)CCN(C/C=C/c1ccc(Cl)cc1)C3` [Example 55, (E)-2-(3-(4-chlorophenyl)allyl)-7-cyano-N-((2-fluoropyridin-4-yl)methyl)-1,2,3,4-tetrahydro-5H-pyrido[4,3-b]indole-5-carboxamide], the minimal effective concentration in the assay on D. immitis microfilariae is 10 µM; with Haemonchus contortus L3, more than 100 µM.

Consider `O=C(NCc1ccnc(F)c1)n1c2c(c3ccc(OC(F)(F)F)cc31)CN(C/C=C/c1ccc(F)cc1Cl)CC2` [Example 373, (E)-2-(3-(2-chloro-4-fluorophenyl)allyl)-N-((2-fluoropyridin-4-yl)methyl)-7-(trifluoromethoxy)-1,2,3,4-tetrahydro-5H-pyrido[4,3-b]indole-5-carboxamide], for which the minimal effective concentration was 10 µM with D. immitis microfilariae and 1.8 µM in the assay with Haemonchus contortus L3.

As to `O=C(NCc1ccnc(Cl)c1)n1c2c(c3ccc(OC(F)(F)F)cc31)CN(C/C=C/c1ccc(F)c(Cl)c1)CC2` [Example 348, (E)-2-(3-(3-chloro-4-fluorophenyl)allyl)-N-((2-chloropyridin-4-yl)methyl)-7-(trifluoromethoxy)-1,2,3,4-tetrahydro-5H-pyrido[4,3-b]indole-5-carboxamide], the minimal effective concentration worked out at 24.5 µM with D. immitis microfilariae and 1 µM in the assay on Haemonchus contortus L3.

With `O=C(NCc1ccnc(Cl)c1)n1c2c(c3cc(OC(F)(F)F)ccc31)CN(C/C=C/c1ccc(F)cc1F)CC2` [Example 387, (E)-N-((2-chloropyridin-4-yl)methyl)-2-(3-(2,4-difluorophenyl)allyl)-8-(trifluoromethoxy)-1,2,3,4-tetrahydro-5H-pyrido[4,3-b]indole-5-carboxamide], the minimal effective concentration with D. immitis microfilariae came out at 3.3 µM; with Haemonchus contortus L3, 0.2 µM.

For `CS(=O)(=O)c1ccc(/C=C/CN2CCc3c(c4ccc(C(F)(F)F)cc4n3C(=O)NCc3ccnc(Cl)c3)C2)cc1` [Example 151, (E)-N-((2-chloropyridin-4-yl)methyl)-2-(3-(4-(methylsulfonyl)phenyl)allyl)-7-(trifluoromethyl)-1,2,3,4-tetrahydro-5H-pyrido[4,3-b]indole-5-carboxamide], the minimal effective concentration is 13.5 µM in the assay on D. immitis microfilariae and more than 100 µM in the assay with Haemonchus contortus L3.

Turning to `O=C(NCc1ccnc(Cl)c1)n1c2c(c3ccc(OC(F)(F)F)cc31)CN(Cc1ccc3nc(Cl)ccc3c1)CC2` [Example 367, N-((2-chloropyridin-4-yl)methyl)-2-((2-chloroquinolin-6-yl)methyl)-7-(trifluoromethoxy)-1,2,3,4-tetrahydro-5H-pyrido[4,3-b]indole-5-carboxamide], the minimal effective concentration in the assay with D. immitis microfilariae was more than 100 µM; in the assay on Haemonchus contortus L3, 10 µM.

For `N#Cc1ccc(/C=C/CN2CCc3c(c4cc5c(cc4n3C(=O)NCc3ccnc(Cl)c3)COC5)C2)cc1` [Example 479, (E)-N-((2-chloropyridin-4-yl)methyl)-8-(3-(4-cyanophenyl)allyl)-1,3,6,7,8,9-hexahydro-5H-furo[3,4-f]pyrido[4,3-b]indole-5-carboxamide], the minimal effective concentration in the assay on D. immitis microfilariae was more than 100 µM; in the assay with Haemonchus contortus L3 it was 1 µM.

For the molecule `COc1cc(CNC(=O)n2c3c(c4cc(C#N)ccc42)CN(C/C=C/c2ccc(Cl)c(Cl)c2)CC3)ccn1` [Example 69, (E)-8-cyano-2-(3-(3,4-dichlorophenyl)allyl)-N-((2-methoxypyridin-4-yl)methyl)-1,2,3,4-tetrahydro-5H-pyrido[4,3-b]indole-5-carboxamide], the minimal effective concentration was 0.03 µM in the assay with D. immitis microfilariae and 0.02 µM with Haemonchus contortus L3.

`O=C(NCc1ccnc(Cl)c1)n1c2c(c3cc(Cl)c(Cl)cc31)CN(C/C=C/c1ccc(Cl)c(Cl)c1)CC2` [Example 281, (E)-7,8-dichloro-N-((2-chloropyridin-4-yl)methyl)-2-(3-(3,4-dichlorophenyl)allyl)-1,2,3,4-tetrahydro-5H-pyrido[4,3-b]indole-5-carboxamide]: the values for the minimal effective concentration in the assay on D. immitis microfilariae and with Haemonchus contortus L3 were more than 100 µM and 1 µM, respectively.
